Laboratory results taken from patent US20240382472A1, “NEUTROPHIL ELASTASE INHIBITORS FOR USE IN THE TREATMENT OF FIBROSIS” (MEREO BIOPHARMA 4 LIMITED, priority 2021, published 2024).
Values joined by “and” are separate entries in the source; they are usually repeats but may differ in a detail not shown here. Identical values can stand only once.

Key:
[1] = system: desmosine (DES) and isodesmosine (IDES); assay: Phase 1b study: plasma desmosine and isodesmosine by isotope-dilution LC/MS; format: in vivo, human
Protocol: (§1) Patients age ≥18 years with BOS and chronic GVHD after HCT were recruited to the National Cancer Institute protocol (NCT02669251). This phase 1 study had 2 parts: 8-week intra-patient dose escalation period, followed by a continuation period that allowed for up to 6 months of treatment. Alvelestat was given orally starting at 60 mg twice daily, increased every 2 weeks to 120 mg twice daily, 180 mg twice daily, and finally 240 mg twice daily.
(§2) Blood biomarkers for neutrophil elastase activity, desmosine, isodesmosine, PRO-C3 and PRO-C6, were collected at baseline (pre-treatment with alvelestat) and after every 2 weeks during alvelestat dose escalations i.e. after 60 mg bid, 120 mg bid, 180 mg bid and 240 mg bid.
DES and IDES levels in the plasma were measured by an isotope-dilution, liquid-chromatography/mass spectrometry method (Huang et al Thorax 2012; 67:502-508).[12] [13]
Results are presented as Mean and Standard Error Mean (SEM). Samples were taken at baseline and at the end of each dose-escalation stage.

PRO-C3 = assay: Phase 1b study: collagen type 3 synthesis biomarker PRO-C3 (and PRO-C3:C3M ratio) by competitive ELISA; format: in vivo, human
Protocol: as §1, §2
(§3) Biomarkers of novel epitopes (neoepitopes) related to collagen turnover and fibrosis (PRO-C6, PRO-C3, C3M, and C6M) were measured by competitive Enzyme Linked Immunosorbant Assay (ELISA) (Nordic Biosciences, Denmark).[1]

PRO-C6 = assay: Phase 1b study: collagen type 6 synthesis biomarker PRO-C6 by competitive ELISA; format: in vivo, human; details: above ULN at baseline; during alvelestat treatment; FIG. 3B
Protocol: as §1, §2, §3

[2] = Phase 1b study in patients with BOS after HCT: tolerability and clinical outcome; format: in vivo
Protocol: as §1

C1M (collagen Type 1) = assay: 12-week study NCT03636347: collagen degradation biomarker C1M; format: in vivo, human; details: alvelestat at week 12, three treatment arms pooled, N = 32; alpha-1 anti-trypsin deficient lung disease; ANCOVA
Protocol: (§4) An aspect of NCT03636347 was to investigate the effect of alvelestat on collagen biomarkers in patients with PiZZ, null or rare variant phenotype/genotype alpha-1 anti-trypsin deficient lung disease. % Change from baseline in a number collagen degradation biomarkers were measured over a 12 week period in alvelestat and placebo arms. Inclusion criteria: patients (18 Years to 75 Years) with a confirmed diagnosis of alpha-1-anti-trypsin deficiency and a PiZZ, null or other rare geno/phenotype and serum […] levels of less than 11 uM; FEV1≥20% predicted; Computerised tomography (CT) scan evidence of emphysema; and non-smokers. Alvelestat was given orally at 120 mg twice daily, 240 mg twice daily, or dose escalation up to 240 mg twice daily, so there were three alvelestat treatment arms. Collagen degradation biomarkers […] (collagen Type 1), […] (collagen Type 6), […] (collagen Type 4) C3M (collagen Type 3) were collected at baseline (e.g. before treatment with alvelestat or placebo) and after 12 weeks following treatment with alvelestat or placebo. Biomarkers related to C3M and […] were measured by competitive Enzyme Linked Immunosorbant Assay (ELISA) (Nordic Biosciences, Denmark).[1] Biomarkers related to […] and […] were measured with Nordic Bioscience assays [Chest. […] C1M, […] concentrations were measured in ng/mL. […]

C6M (collagen Type 6) = assay: 12-week study NCT03636347: collagen degradation biomarker C6M; format: in vivo, human; details: alvelestat at week 12, three treatment arms pooled, N = 36; ANCOVA
Protocol: as §4

C4Ma3 (collagen Type 4) = assay: 12-week study NCT03636347: collagen degradation biomarker C4Ma3; format: in vivo, human; details: alvelestat at week 12, three treatment arms pooled, N = 17; ANCOVA
Protocol: as §4

C3M (collagen Type 3) = assay: 12-week study NCT03636347: collagen degradation biomarker C3M; format: in vivo, human; details: alvelestat at week 12, three treatment arms pooled, N = 34; ANCOVA
Protocol: as §4

Neutrophil Elastase (NE) [3] = target: T1, Neutrophil Elastase (NE) (Homo sapiens, UniProt P08246); details: from WO2021/053058, Examples 1-5; cited from earlier work
T1 sequence (P08246 30-267): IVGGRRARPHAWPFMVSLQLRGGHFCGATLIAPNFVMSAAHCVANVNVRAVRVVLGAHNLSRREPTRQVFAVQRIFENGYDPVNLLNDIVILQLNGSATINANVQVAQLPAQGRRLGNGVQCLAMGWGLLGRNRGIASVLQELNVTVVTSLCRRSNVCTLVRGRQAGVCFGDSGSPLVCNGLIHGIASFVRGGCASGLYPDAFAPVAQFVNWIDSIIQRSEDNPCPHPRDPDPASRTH

[4] = from WO2021/053058, Examples 1-5; cited from earlier work
Neutrophil Elastase (NE) [5] = target: T1, Neutrophil Elastase (NE); assay: Phase 1b study: ex-vivo zymosan-stimulated neutrophil elastase activity in whole blood; set-up: induce degranulation of white blood cells including neutrophils, releasing an excess of free active NE into the plasma; from tissue; host or cells: whole blood of patients (neutrophils degranulated with zymosan); plasma measured with ProteaseTag Active Neutrophil Elastase Immunoassay (ProAxsis Ltd); details: FIG. 2
Protocol: Patients age ≥18 years with BOS and chronic GVHD after HCT were recruited to the National Cancer Institute protocol (NCT02669251). […] Alvelestat was given orally starting at 60 mg twice daily, increased every 2 weeks to 120 mg twice daily, 180 mg twice daily, and finally 240 mg twice daily.
as §2
Ex-vivo zymosan-stimulated Neutrophil Elastase (NE) activity was measured by the following assay: zymosan was added to whole blood to induce degranulation of white blood cells including neutrophils, releasing an excess of free active NE into the plasma. The blood was centrifuged and plasma removed. The level of NE in the plasma sample was measured by the ProteaseTag® Active Neutrophil Elastase Immunoassay (ProAxsis Ltd, Belfast, Northern Ireland).

## Cc1c(-c2ccnn2C)cc(C(=O)NCc2ccc(S(C)(=O)=O)cn2)c(=O)n1-c1cccc(C(F)(F)F)c1 [alvelestat, N-{[5-(methanesulfonyl)pyridin-2-yl]methyl}-6-methyl-5-(1-methyl-1H-pyrazol-5-yl)-2-oxo-1-[3-(trifluoromethyl)phenyl]-1,2-dihydropyridine-3-carboxamide]
[1]; patients with BOS after HCT, N=7, week 8 of dose escalation 60 to 240 mg twice daily oral, baseline 0.464
  DES and IDES plasma level, mean (SEM): 0.380 (SEM 0.0419) ng/ml
[1]; week 8 of dose escalation, SEM 6.794, FIG. 1
  DES and IDES mean within subject % change from baseline (CFB): −16.2%
PRO-C3; above ULN at baseline, during alvelestat treatment, FIG. 3A
  Collagen synthesis as measured by PRO-C3: declined
PRO-C3; blood samples during the study, n=7, FIG. 4
  Ratio of PRO-C3 to C3M: decrease
PRO-C6
  Collagen synthesis as measured by PRO-C6: declined
[2]; all 7 patients, up to maximum dose 240 mg twice daily
  Tolerability of dose escalation: able to tolerate dose escalation
[2]; the 6 patients with biomarker suppression
  Lung disease outcome (FEV1% predicted at end of treatment no worse than 10% below baseline level): improved or stable lung disease
[2]; treated patients, phase 1b
  Patients with consistent suppressive effect on biomarkers of elastase activity and collagen turnover: 6 of 7
C1M (collagen Type 1)
  C1M change from baseline (%), LS Means (SE): −0.6% and −0.6 (49.42) %
C6M (collagen Type 6)
  C6M change from baseline (%), LS Means (SE): 1.1% and 1.1 (5.52) %
C4Ma3 (collagen Type 4)
  C4Ma3 change from baseline (%), LS Means (SE): −6.6 (8.96) %
C3M (collagen Type 3)
  C3M change from baseline (%), LS Means (SE): −1.7 (4.08) %
Neutrophil Elastase (NE) [3]
  Inhibition of neutrophil elastase (NE): potent and specific inhibitor
[4]
  Effect against GVHD: protective effect
Neutrophil Elastase (NE) [5]; over the dose escalation period, N=7
  Ex vivo zymosan stimulated elastase activity, course: progressive decrease
Neutrophil Elastase (NE) [5]; some subjects, dose escalation period
  Suppression of ex vivo zymosan stimulated elastase activity: 100%
